Biological target: T1, ERO1α (Homo sapiens, UniProt Q96HE7)
T1 construct: endogenous in cells; host or cells: PC-9
T1 sequence (Q96HE7 24-468): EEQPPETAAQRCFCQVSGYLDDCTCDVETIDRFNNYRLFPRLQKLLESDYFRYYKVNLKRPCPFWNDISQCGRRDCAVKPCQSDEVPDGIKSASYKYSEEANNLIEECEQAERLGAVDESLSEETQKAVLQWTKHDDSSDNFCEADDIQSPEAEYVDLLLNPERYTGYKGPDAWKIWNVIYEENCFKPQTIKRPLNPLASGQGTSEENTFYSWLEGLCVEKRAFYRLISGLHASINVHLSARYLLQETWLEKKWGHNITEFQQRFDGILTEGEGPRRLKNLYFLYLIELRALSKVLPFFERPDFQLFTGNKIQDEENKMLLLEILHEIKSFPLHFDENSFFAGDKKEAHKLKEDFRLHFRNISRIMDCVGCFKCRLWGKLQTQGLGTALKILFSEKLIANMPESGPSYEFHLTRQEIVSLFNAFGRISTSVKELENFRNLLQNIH
Assay: Cellular thermal shift assay (CETSA) in PC-9 cells, ERO1α
Type: cell-based
Details: 100 μM, 1 hour at 37° C.
Text: To date activity of T151742 towards other flavoenzymes has not been identified at this time. We utilized the Cellular Thermal Shift Assay (CETSA) to determine target engagement of T151742 in vitro using the non-small cell lung cancer (NSCLC) cell line PC-9. The EGFR driven PC-9 cell line was chosen as new treatment strategies are needed in EGFR driven NSCLC as most patients relapse and become resistant to current targeted therapies with development of further mutations such as T790M, C797S as well as emergence of EGFR independent tumors^42, 43. […] First, we determined the aggregation temperature (Tagg) of ERO1α, ERO1β, and LSD-1, which are all FAD dependent enzymes and potential in vitro targets of T15742. […]
Upon addition of T151742, Tagg was quantified for ERO1α, ERO1β, and LSD-1. Quantification of the average of n=3 independent experiments based on western blot analysis for ERO1α, ERO1β, and LSD-1. […] Cellular viability was determined by MTT assay. n=3 independent experiments performed in quadruplicates. ****p<0.0001; by two-way ANOVA.
Cell Lines: PC-9 cell line used was obtained from Sigma Aldrich and grown in RPMI 1640 medium with 10% fetal bovine serum and 1% penicillin/streptomycin. […] Plate was then read on the BioTek Cytation 5 at 530/590 nm. […]

## CN(C)c1ccc(/C=C2\Oc3cc(O)ccc3C2=O)cc1 [Compound T151742]
  Tagg for ERO1α: > 60 °C
  shift of Tagg for ERO1α: ~6 degrees

Source: patent US20250064773A1, “TARGETING ERO1 ALPHA WITH AURONE DERIVATIVES” (West Virginia University Board of Governors on behalf of …, priority 2021, published 2025)
